Experimental data taken from patent US20170129903A1, “COMPOUNDS COMPRISING 1,1a,2,5a-TETRAHYDROSPIRO[INDOLE-3,2a-PYRROLE]-2,5a-DIONE SYSTEM AS INHIBITORS P53-MDM2 PROTEIN-PROTEIN INTERACTION” (ADAMED SP. Z O.O., priority 2014, published 2017).

Columns and labels:
[1] = target: T1, p53-Mdm2 interaction (N-terminal domain of Mdm2 protein, amino acids 1-111) (Homo sapiens, UniProt Q00987); assay: Fluorescence polarization (FP) binding assay of p53-Mdm2 interaction; conditions: FP assay, 130 nM Mdm2, FAM-labelled p53 peptide; Ki transformed from IC50 using Kenakin equation
T1 construct: N-terminal domain of Mdm2 protein (amino acids 1-111)
T1 sequence (Q00987 1-111): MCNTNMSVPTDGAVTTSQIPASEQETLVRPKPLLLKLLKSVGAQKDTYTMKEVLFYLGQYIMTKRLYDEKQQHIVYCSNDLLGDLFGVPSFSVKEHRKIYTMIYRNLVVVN
Description: The inhibition of p53-Mdm2 interaction was measured using a fluorescence polarization (FP) binding assay. FP measures the rotational movement of molecules in a homogenous suspension. For this assay, N-terminal domain of Mdm2 protein (amino acids 1-111) is combined with a fluorescein-labelled (FAM) peptide derived from p53 trans-activation domain. Upon excitation of the fluorescent ligand with linearly polarized light, […]. If the peptide is bound by Mdm2, rotation will slow down and the perpendicular component will decrease. Disruption of the formation of the peptide-Mdm2 complex due to an inhibitor molecule binding to the p53 binding site of Mdm2 results in faster rotation of the peptide.
Fluorescence polarization experiments were read on Tecan Infinite M1000 reader with the 470 nm excitation and 520 nm emission filters for fluorescein. The fluorescence polarization was measured in black 96-well plates (Corning, CLS3991) in room temperature. Purity of Mdm2 was controlled at >95%. Reaction buffer was optimized by adding 5 mM DTT and 0.1% zwitterionic detergent CHAPS to reduce effect of nonspecific interactions.
The test was performed by combining successive dilution of compounds diluted in dimethyl sulfoxide (DMSO, 5% final concentration) with 130 nM Mdm2 in reaction buffer (PBS, 0.1% CHAPS, 5 mM DTT (dithiothreitol)). After 15 minutes of incubation in room temperature […] FAM-labelled peptide was added. Final reading was performed after 90 minutes of incubation. Dose-dependent binding curves and IC50 values were calculated using GraphPad Prism5 and next transformed to Ki values using Kenakin equation.

[2] = test system: SJSA-1 osteosarcoma cell line; assay: MTT cell viability assay; format: cell-based; conditions: 72 h incubation, average of 2-5 experiments
Description: The effect of the invented p53-Mdm2 inhibitors on cell viability has been assessed using MTT assay. It is a colorimetric assay that measures conversion of tetrazolium ring of the soluble yellow dye (MTT) into insoluble purple formazan. This process is catalysed solely in mitochondrial dehydrogenases of living cells.
Cells were seeded on 96-well plates and then treated with successive dilutions of tested compounds. After 72 h incubation, MTT was added to the final concentration 0.5 mg/ml. The cells were further incubated for the next 4 h. Then the solution was drained and the remaining formazan crystals were dissolved in 100 μl DMSO. […] All the MTT experiments were independently repeated 2-5 times. Dose-dependent binding curves and IC50 values were calculated using GraphPad Prism 5.

Row | Compound | Ki [1] | IC50 ([2]; Homo sapiens, SJSA-1, 72 h) | IC50 [2]
1 | COc1ccccc1-n1nc(C(C)C)c2c1C(=O)N(c1cc(Cl)ccc1C)C21C(=O)Nc2cc(Cl)ccc21 (stereo not drawn) [Compound 32, 6-chloro-5′-(5-chloro-2-methylphenyl)-1′-(2-methoxyphenyl)-3′-(propan-2-yl)-1,2,5′,6′-tetrahydro-1′H-spiro[indole-3,4′-pyrrolo[3,4-c]pyrazole]-2,6′-dione] | 1390 nM |  | 
2 | CC(C)C(=O)C1=C(O)C(=O)N(c2cc(Cl)ccc2O)C12C(=O)Nc1cc(Cl)ccc12 (stereo not drawn) [Compound 9, 6-chloro-1′-(5-chloro-2-hydroxyphenyl)-4′-hydroxy-3′-(iso-propanoyl)-1,1′,2,5′-tetrahydrospiro[indole-3,2′-pyrrole]-2,5′-dione] | 268 nM |  | 
3 | O=C1C(O)=C(c2ccccc2)C2(C(=O)Nc3ccccc32)N1c1cccc(Cl)c1 (stereo not drawn) [Compound 39, 1′-(3-chlorophenyl)-4′-hydroxy-3′-phenyl-1,1′,2,5′-tetrahydrospiro[indole-3,2′-pyrrole]-2,5′-dione] | 750 nM |  | 
4 | COc1cccc(OC)c1-n1nc2c(c1C(C)C)C1(C(=O)Nc3cc(Cl)ccc31)N(c1cc(Cl)ccc1C)C2=O (stereo not drawn) [Compound 70, 6-chloro-5′-(5-chloro-2-methylphenyl)-2′-(2,6-dimethoxyphenyl)-3′-(propan-2-yl)-1,2,5′,6′-tetrahydro-2′H-spiro[indole-3,4′-pyrrolo[3,4-c]pyrazole]-2,6′-dione] | 120 nM |  | 
5 | COc1ccc(Cl)cc1N1C(=O)C(O)=C(C(=O)C2(C)CC2)C12C(=O)Nc1cc(Cl)ccc12 (stereo not drawn) [Compound 7, 6-chloro-1′-(5-chloro-2-methoxyphenyl)-4′-hydroxy-3′-(1-methylcyclopropane-carbonyl)-1,1′,2,5′-tetrahydrospiro[indole-3,2′-pyrrole]-2,5′-dione] | 700 nM |  | 

The next compounds have a lower Ki [1] than those just listed; values first:

Row | Ki [1] | IC50 ([2]; Homo sapiens, SJSA-1, 72 h) | IC50 [2] | Compound
6 | 2.8 nM | 0.12 µM |  | COc1ccc(-n2cc3c(c2C(C)C)[C@@]2(C(=O)Nc4cc(Cl)ccc42)N(c2cc(Cl)cnc2C)C3=O)c(OC)c1 [Compound 111, (3S)-6-chloro-2′-(5-chloro-2-methyl-pyridin-3-yl)-5′-(2,4-dimethoxyphenyl)-6′-(propan-2-yl)-1,2,3′,5′-tetrahydro-2′H-spiro[indole-3,1′-pyrrolo[3,4-c]pyrrole]-2,3′-dione]
7 | 24 nM | 21.2 µM |  | CC(C)(C)c1[nH]nc2c1C1(C(=O)Nc3cc(Cl)ccc31)N(c1cccc(Cl)c1)C2=O (stereo not drawn) [Compound 20, 3′-tert-butyl-6-chloro-5′-(3-chlorophenyl)-1,2,5′,6′-tetrahydro-2′H-spiro[indole-3,4′-pyrrolo[3,4-c]pyrazole]-2,6′-dione]
8 | 1.9 nM |  | 0.34 µM | COc1ccccc1-n1nc2c(c1C(C)C)[C@@]1(C(=O)Nc3cc(Cl)ccc31)N(c1cncc(Cl)c1)C2=O [Compound 88, (3S)-6-chloro-5′-(5-chloropyridin-3-yl)-2′-(2-methoxyphenyl)-3′-(propan-2-yl)-1,2,5′,6′-tetrahydro-2′H-spiro[indole-3,4′-pyrrolo[3,4-c]pyrazole]-2,6′-dione]
9 | 29 nM | 44.5 µM |  | Cc1ccc(Cl)cc1N1C(=O)C(O)=C(c2ccccc2)C12C(=O)Nc1cc(Cl)ccc12 (stereo not drawn) [Compound 47, 6-chloro-1′-(5-chloro-2-methylphenyl)-4′-hydroxy-3′-phenyl-1,1′,2,5′-tetrahydrospiro[indole-3,2′-pyrrole]-2,5′-dione]
10 | 100 nM |  |  | O=C1C(O)=C(Sc2ccc(Cl)cc2)[C@@]2(C(=O)Nc3cc(Cl)ccc32)N1c1cccc(Cl)c1 [Compound 56, (3R)-6-chloro-1′-(3-chlorophenyl)-3′[(4-chlorophenyl)sulfanyl]-4′-hydroxy-1,1′,2,5′-tetrahydrospiro[indole-3,2′-pyrrole]-2,5′-dione]
11 | 3.6 nM |  |  | COc1ccc(C(N)=O)cc1-n1nc2c(c1C(C)C)C1(C(=O)Nc3cc(Cl)ccc31)N(c1cc(Cl)ccc1O)C2=O (stereo not drawn) [Compound 75, 3-[6-chloro-5′-(5-chloro-2-hydroxy-phenyl)-2,6′-dioxo-3′-(propan-2-yl)-1,2,5′,6′-tetrahydro-2′H-spiro[indole-3,4′-pyrrolo[3,4-c]pyrazole]-2′-yl]-4-methoxybenzamide]
